Literature values, collected in patent US20080026050A1, “SOLID DOSE FORMULATIONS OF A THROMBIN RECEPTOR ANTAGONIST” (priority 2006, published 2008).

Target: T1, thrombin receptor (Homo sapiens, UniProt P25116)
T1 sequence (P25116 22-425): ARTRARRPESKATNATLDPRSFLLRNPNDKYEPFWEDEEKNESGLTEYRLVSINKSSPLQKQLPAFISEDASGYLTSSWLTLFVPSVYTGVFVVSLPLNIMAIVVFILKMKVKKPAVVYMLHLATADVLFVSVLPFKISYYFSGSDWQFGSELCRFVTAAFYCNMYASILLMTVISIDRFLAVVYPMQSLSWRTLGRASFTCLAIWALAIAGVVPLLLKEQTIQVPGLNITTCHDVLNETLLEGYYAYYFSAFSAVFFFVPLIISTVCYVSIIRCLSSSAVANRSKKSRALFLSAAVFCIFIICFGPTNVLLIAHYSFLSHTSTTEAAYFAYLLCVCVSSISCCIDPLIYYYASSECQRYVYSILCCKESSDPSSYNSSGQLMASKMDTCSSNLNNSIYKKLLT
Conditions: general statement, refers to U.S. application Ser. No. 10/412,982

CCOC(=O)N[C@@H]1CC[C@@H]2[C@@H](C1)C[C@H]1C(=O)O[C@H](C)[C@H]1[C@H]2/C=C/c1ccc(-c2cccc(F)c2)cn1 [COMPOUND 1]
selectivity: good
thrombin receptor antagonist activity (potency): good
